Consider four cell lines from the supplement of paper PMC10307832.

Holding throughout (experiment): relative viability (nuclei count vs DMSO), 5 days (fraction); higher = more cells survive
Compound in the test “Linsitinib + Tozasertib”: C[C@]1(O)C[C@@H](c2nc(-c3ccc4ccc(-c5ccccc5)nc4c3)c3c(N)nccn32)C1 [Linsitinib] + Cc1cc(Nc2cc(N3CCN(C)CC3)nc(Sc3ccc(NC(=O)C4CC4)cc3)n2)n[nH]1 [Tozasertib] (partner 0.1 µM)
The procedure, abridged:
(§1)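 Relative viability was taken as the ratio of nuclei in treated wells to nuclei in vehicle wells. Lung cancer cell lines in 1536-well plates received compounds by pin tool one day after seeding, either one drug alone or a fixed anchor-drug dose plus five library-drug doses (not always all listed) in √10 steps. Nuclei were counted on 4× images after 5 days of treatment, and values are medians of duplicate plates.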

Compound in the test “Ispinesib + AZD7762”: Cc1ccc(C(=O)N(CCCN)[C@@H](c2nc3cc(Cl)ccc3c(=O)n2Cc2ccccc2)C(C)C)cc1 [Ispinesib] + NC(=O)Nc1cc(-c2cccc(F)c2)sc1C(=O)N[C@H]1CCCNC1 [AZD7762] (partner 0.2 µM)
The procedure, abridged:
as §1

Compound in the test “Ispinesib + Foretinib”: Cc1ccc(C(=O)N(CCCN)[C@@H](c2nc3cc(Cl)ccc3c(=O)n2Cc2ccccc2)C(C)C)cc1 [Ispinesib] + COc1cc2c(Oc3ccc(NC(=O)C4(C(=O)Nc5ccc(F)cc5)CC4)cc3F)ccnc2cc1OCCCN1CCOCC1 [Foretinib] (partner 0.25 µM)
The procedure, abridged: as §1

Compound in the test “Ispinesib + OSI-027”: Cc1ccc(C(=O)N(CCCN)[C@@H](c2nc3cc(Cl)ccc3c(=O)n2Cc2ccccc2)C(C)C)cc1 [Ispinesib] + COc1cccc2cc(-c3nc([C@H]4CC[C@H](C(=O)O)CC4)n4ncnc(N)c34)[nH]c12 [OSI-027] (partner 0.5 µM)
Put shortly: as §1

On to NCI-H2087, for which the relative viability turned out to be 0.219 with Linsitinib + Tozasertib (first compound 0.01 µM); 0.259 with Linsitinib + Tozasertib (first compound 0.03162 µM); 0.196 with Linsitinib + Tozasertib (first compound 0.1 µM); 0.141 in the test with Linsitinib + Tozasertib (first compound 0.3162 µM); 0.203 in the test with Linsitinib + Tozasertib (first compound 1 µM); 1.35 in the test with Ispinesib + AZD7762 (first compound 0.001 µM). The relative viability in the test with Ispinesib + AZD7762 (first compound 0.003162 µM) is 1.37; with Ispinesib + AZD7762 (first compound 0.01 µM), 1.48; with Ispinesib + AZD7762 (first compound 0.03162 µM) it was 1.02; in the test with Ispinesib + AZD7762 (first compound 0.1 µM), 0.558; with Ispinesib + Foretinib (first compound 0.001 µM), 1.17; with Ispinesib + Foretinib (first compound 0.003162 µM), 1.14. The relative viability with Ispinesib + Foretinib (first compound 0.01 µM) stood at 1.45; with Ispinesib + Foretinib (first compound 0.03162 µM) it was 0.901; with Ispinesib + Foretinib (first compound 0.1 µM) it was 0.209; with Ispinesib + OSI-027 (first compound 0.001 µM) it was 0.551; with Ispinesib + OSI-027 (first compound 0.003162 µM), 0.643; in the test with Ispinesib + OSI-027 (first compound 0.01 µM), 0.535. Moreover, the relative viability came to 0.206 with Ispinesib + OSI-027 (first compound 0.03162 µM) and 0.102 in the test with Ispinesib + OSI-027 (first compound 0.1 µM).

As to LCLC-103H, the relative viability was determined as 0.534 in the test with Linsitinib + Tozasertib (first compound 0.01 µM); 0.496 in the test with Linsitinib + Tozasertib (first compound 0.03162 µM); 0.497 with Linsitinib + Tozasertib (first compound 0.1 µM); 0.472 in the test with Linsitinib + Tozasertib (first compound 0.3162 µM); 0.331 in the test with Linsitinib + Tozasertib (first compound 1 µM); 0.849 with Ispinesib + AZD7762 (first compound 0.001 µM). In addition, the relative viability with Ispinesib + AZD7762 (first compound 0.003162 µM) was 0.836; with Ispinesib + AZD7762 (first compound 0.01 µM) it was 0.887; with Ispinesib + AZD7762 (first compound 0.03162 µM), 0.484; with Ispinesib + AZD7762 (first compound 0.1 µM), 0.434; with Ispinesib + Foretinib (first compound 0.001 µM) it was 0.869; with Ispinesib + Foretinib (first compound 0.003162 µM), 1.03. Besides, the relative viability with Ispinesib + Foretinib (first compound 0.01 µM) amounted to 0.95; with Ispinesib + Foretinib (first compound 0.03162 µM) it was 0.665; in the test with Ispinesib + Foretinib (first compound 0.1 µM) it was 0.693; in the test with Ispinesib + OSI-027 (first compound 0.001 µM), 0.562; with Ispinesib + OSI-027 (first compound 0.003162 µM), 0.585; in the test with Ispinesib + OSI-027 (first compound 0.01 µM), 0.527. The relative viability in the test with Ispinesib + OSI-027 (first compound 0.03162 µM) turned out to be 0.366; with Ispinesib + OSI-027 (first compound 0.1 µM) it was 0.357.

Turning to LK-2, the relative viability worked out at 0.179 with Linsitinib + Tozasertib (first compound 0.01 µM); 0.173 in the test with Linsitinib + Tozasertib (first compound 0.03162 µM); 0.172 in the test with Linsitinib + Tozasertib (first compound 0.1 µM); 0.18 in the test with Linsitinib + Tozasertib (first compound 0.3162 µM); 0.177 in the test with Linsitinib + Tozasertib (first compound 1 µM); 0.358 with Ispinesib + AZD7762 (first compound 0.001 µM). For the same cell line, the relative viability with Ispinesib + AZD7762 (first compound 0.003162 µM) came out at 0.552; with Ispinesib + AZD7762 (first compound 0.01 µM) it was 0.306; with Ispinesib + AZD7762 (first compound 0.03162 µM), 0.154; with Ispinesib + AZD7762 (first compound 0.1 µM) it was 0.185; with Ispinesib + Foretinib (first compound 0.001 µM), 1.25; with Ispinesib + Foretinib (first compound 0.003162 µM), 1.21. Further, the relative viability came out at 1.43 with Ispinesib + Foretinib (first compound 0.01 µM); 1.2 with Ispinesib + Foretinib (first compound 0.03162 µM); 0.617 with Ispinesib + Foretinib (first compound 0.1 µM); 0.2 with Ispinesib + OSI-027 (first compound 0.001 µM); 0.256 with Ispinesib + OSI-027 (first compound 0.003162 µM); 0.194 with Ispinesib + OSI-027 (first compound 0.01 µM). Besides, the relative viability in the test with Ispinesib + OSI-027 (first compound 0.03162 µM) is 0.176; with Ispinesib + OSI-027 (first compound 0.1 µM), 0.213.

In the case of NCI-H2342, the relative viability with Linsitinib + Tozasertib (first compound 0.01 µM) was 0.554; with Linsitinib + Tozasertib (first compound 0.03162 µM) it was 0.54; with Linsitinib + Tozasertib (first compound 0.1 µM) it was 0.516; with Linsitinib + Tozasertib (first compound 0.3162 µM), 0.651; with Linsitinib + Tozasertib (first compound 1 µM) it was 0.412; in the test with Ispinesib + AZD7762 (first compound 0.001 µM), 0.609. Also, the relative viability came to 0.432 with Ispinesib + AZD7762 (first compound 0.003162 µM); 0.528 with Ispinesib + AZD7762 (first compound 0.01 µM); 0.411 with Ispinesib + AZD7762 (first compound 0.03162 µM); 0.373 in the test with Ispinesib + AZD7762 (first compound 0.1 µM); 1.16 with Ispinesib + Foretinib (first compound 0.001 µM); 1 with Ispinesib + Foretinib (first compound 0.003162 µM). Besides, the relative viability in the test with Ispinesib + Foretinib (first compound 0.01 µM) was 1; with Ispinesib + Foretinib (first compound 0.03162 µM), 1.09; with Ispinesib + Foretinib (first compound 0.1 µM), 0.793; with Ispinesib + OSI-027 (first compound 0.001 µM), 0.631; in the test with Ispinesib + OSI-027 (first compound 0.003162 µM), 0.741; in the test with Ispinesib + OSI-027 (first compound 0.01 µM), 0.593. Moreover, the relative viability with Ispinesib + OSI-027 (first compound 0.03162 µM) was found to be 0.48; in the test with Ispinesib + OSI-027 (first compound 0.1 µM), 0.456.
